Our source for the TGI values is PubChem BioAssay (NCI).

Some test systems named below: M19-MEL melanoma; SNB-78 CNS; OVCAR-3 ovarian; K-562 leukemia; KM20L2 colon; NCI-H226 lung; DMS 273 small cell lung; DLD-1 colon; LXFL 529 NSCLC.
What all share (assay): inhibition of tumour cell growth, NCI panel, 48 h

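How tested: cells in 96-well plates exposed to compound for 48 hours at five concentrations. At the TGI there is no net growth.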

As for `O=c1/c(=C/c2ccc3c(c2)OCO3)sc2nnc(-c3ccco3)n12`, the TGI in the assay with M19-MEL melanoma, in the assay with SNB-78 CNS, with OVCAR-3 ovarian, in the assay with K-562 leukemia, in the assay on KM20L2 colon and in the assay on NCI-H226 lung was above 100 µM in each case. Also, the TGI in the assay on DMS 273 small cell lung, with DLD-1 colon and in the assay on LXFL 529 NSCLC was above 100 µM throughout.
On to `c1ccc(C2N3CCCCC3[C@@H]3c4[nH]c5ccccc5c4CCN23)cc1` (stereo partly specified), for which the TGI in the assay on M19-MEL melanoma, with SNB-78 CNS, with OVCAR-3 ovarian, in the assay on K-562 leukemia, with KM20L2 colon and in the assay with DMS 273 small cell lung was above 100 µM each time. Also, the TGI in the assay on DLD-1 colon and with LXFL 529 NSCLC was above 100 µM throughout.
In the case of `Cc1cc(NCCCCCCNc2cc(C)nc3ccc(Cl)cc23)c2cc(Cl)ccc2n1`, the TGI was 43.4 µM in the assay on M19-MEL melanoma; 56.8 µM with SNB-78 CNS; 32 µM in the assay on OVCAR-3 ovarian; 18.4 µM with K-562 leukemia; 32.4 µM in the assay with KM20L2 colon; above 100 µM in the assay on NCI-H226 lung. The values for the TGI in the assay on DMS 273 small cell lung, in the assay with DLD-1 colon and with LXFL 529 NSCLC were 42.1 µM, 30.8 µM and above 100 µM, respectively.
Take `O=C(Nc1c(Cl)cc([N+](=O)[O-])cc1Cl)/C(=N\Nc1cccc(Cl)c1)c1c(O)c2ccccc2oc1=O`: the TGI in the assay with M19-MEL melanoma, in the assay on OVCAR-3 ovarian, in the assay with K-562 leukemia, in the assay on KM20L2 colon and in the assay with DLD-1 colon was above 100 µM each time.
Consider `CSc1ccc2c(cc1=O)[C@@H](NC(=O)c1ccc(F)cc1)CCc1cc(O)c(O)c(O)c1-2`, for which the TGI in the assay with M19-MEL melanoma, in the assay with SNB-78 CNS, with OVCAR-3 ovarian, in the assay on K-562 leukemia, in the assay on KM20L2 colon and in the assay with NCI-H226 lung was above 100 µM throughout. In addition, the TGI with DMS 273 small cell lung, in the assay on DLD-1 colon and with LXFL 529 NSCLC was above 100 µM in each case.
As for `CCSc1nc2n(c(=S)n1)CCN2C`, the TGI with M19-MEL melanoma turned out to be 29.4 µM; in the assay with OVCAR-3 ovarian, 49.3 µM; in the assay on K-562 leukemia, 79.5 µM; with KM20L2 colon, 52.9 µM; with NCI-H226 lung, 42.8 µM; in the assay with DMS 273 small cell lung, 33.6 µM. Further, the TGI in the assay on LXFL 529 NSCLC came to 29.5 µM.
Consider `C/C(=N/N)c1ccc2[nH]c3c(C)cc([N+](=O)[O-])c(C)c3c2c1`, for which the TGI with M19-MEL melanoma came out at 27.1 µM; in the assay with OVCAR-3 ovarian, 30.7 µM; in the assay on K-562 leukemia, 40.7 µM; with NCI-H226 lung it was 29.2 µM; in the assay with DMS 273 small cell lung, 17.4 µM.
For `CCC/C(=N\NC(=O)c1cc2ccccc2cc1O)C(CC)C(=O)CCC(=O)N(Cc1ccccc1)Cc1ccccc1` (stereo unspecified), the TGI in the assay on M19-MEL melanoma is 48.6 µM; in the assay on SNB-78 CNS, above 100 µM; in the assay with OVCAR-3 ovarian, above 100 µM; in the assay with K-562 leukemia, 69.9 µM; in the assay with KM20L2 colon it was above 100 µM; in the assay with NCI-H226 lung, above 100 µM. Besides, the TGI with DMS 273 small cell lung was 52.8 µM; in the assay with DLD-1 colon it was above 100 µM; in the assay with LXFL 529 NSCLC, above 100 µM.
`Nc1ccc(N)c2c1C(=O)c1c(N)ccc(N)c1C2=O`: the TGI in the assay with M19-MEL melanoma is above 100 µM; in the assay with SNB-78 CNS it was above 100 µM; in the assay on OVCAR-3 ovarian, 81.9 µM; in the assay with K-562 leukemia, above 100 µM; in the assay on KM20L2 colon, above 100 µM; in the assay on NCI-H226 lung, 67.8 µM. In addition, the TGI in the assay with DMS 273 small cell lung and in the assay with DLD-1 colon was above 100 µM each time.
With `O=C(CSc1nnc(-c2ccc(N=Cc3ccc(Cl)cc3)cc2)o1)Nc1cccc(Cl)c1`, the TGI in the assay on M19-MEL melanoma, in the assay with SNB-78 CNS, in the assay with K-562 leukemia, in the assay on KM20L2 colon, in the assay on NCI-H226 lung and in the assay on DMS 273 small cell lung was above 100 µM throughout. Further, the TGI in the assay on LXFL 529 NSCLC was above 100 µM.
For `COc1cc(C=O)c(-c2cc3c(cc2C=O)OCO3)c(OC)c1OC`, the TGI was above 290 µM with M19-MEL melanoma; 153 µM in the assay on OVCAR-3 ovarian; above 290 µM with K-562 leukemia; 147 µM with KM20L2 colon; 280 µM in the assay on NCI-H226 lung; above 290 µM in the assay with DMS 273 small cell lung. In addition, the TGI in the assay on DLD-1 colon and with LXFL 529 NSCLC was above 290 µM each time.
As for `Cc1cc2c(c(N)c1C)C(=O)c1ccccc1C2=O`, the TGI with M19-MEL melanoma, in the assay on SNB-78 CNS, in the assay on K-562 leukemia, in the assay with KM20L2 colon, in the assay with DMS 273 small cell lung and in the assay on DLD-1 colon was above 100 µM in each case. Besides, in the assay with LXFL 529 NSCLC, the TGI is above 100 µM.
As to `O=c1[nH]c(=O)n(C2CC(O)C(CO)O2)cc1C#Cc1cc(F)cc(F)c1` (stereo unspecified), the TGI in the assay on M19-MEL melanoma, in the assay on SNB-78 CNS, with OVCAR-3 ovarian, in the assay with K-562 leukemia, with NCI-H226 lung and in the assay with DMS 273 small cell lung was above 100 µM throughout. Further, the TGI with DLD-1 colon and in the assay with LXFL 529 NSCLC was above 100 µM each time.
With `CN(C)/C=N/c1nc2ncn(CCOC(=O)c3ccccc3)c2c(=O)[nH]1`, the TGI in the assay on M19-MEL melanoma, with SNB-78 CNS, in the assay with OVCAR-3 ovarian, in the assay with K-562 leukemia, in the assay with KM20L2 colon and with NCI-H226 lung was above 100 µM in each case. Further, the TGI in the assay on DMS 273 small cell lung, in the assay with DLD-1 colon and in the assay on LXFL 529 NSCLC was above 100 µM throughout.
Regarding `COc1ccc(C#CCC(OC2OC(CO)C(O)C(O)C2O)C(O)c2ccc(OC)c(OC)c2)cc1OC` (stereo unspecified), the TGI with SNB-78 CNS, in the assay with OVCAR-3 ovarian, in the assay on K-562 leukemia, in the assay on KM20L2 colon, in the assay on NCI-H226 lung and in the assay on DMS 273 small cell lung was above 100 µM throughout. For the same compound, the TGI in the assay with DLD-1 colon and in the assay with LXFL 529 NSCLC was above 100 µM in each case.
